From US20260216141A1, “NECROSIS INHIBITOR” (LINKGEVITY LIMITED, priority 2023, published 2026)
“Also recorded” adds a separate entry of the source. Where two headings read alike, the source gives them in different places.

Assays:
[1] = tested on: Hepg2s spheroids; assay type: cell-based; settings: for necrotic core formation / cell death necrosis relative to control: hypoxic and nutrient deprivation stress, DRAQ7, up to day 7
Experimental: Media changes were on alternative days. […] DMSO controls were added on each plate.
In some of the following Examples, human 3D cell culture was employed using liver Hepg2 cells. 3D cell culture is known to accurately replicate a cell's native environment. During embryonic development, cells aggregate and self-assemble into complex multi-cellular structures. The same aggregation process can likewise occur in in vitro culture systems if cell-cell cohesion is favoured over cell attachment to a substrate. The resulting 3D cell culture aggregates are known as spheroids. […] A standard method of spheroid formation in U-bottom low adhesion plates was used in the Examples herein.
This is because, as the spheroids grow, only the peripheral cells obtain oxygen and nutrients from the cell culture medium. The inner cells die from cell death necrosis, with the formation of large necrotic cores (observable though use of standard live dead stains). Thus, necrotic core formation represents a naturally occurring hypoxic and nutrient stress. This resembles multiple forms of shock in humans where blood flow carrying nutrients and oxygen is disrupted to certain cells, tissues and/or organs.

[2] = tested on: human intestinal fibroblast primary cell spheroids; assay: Human intestinal fibroblast primary cell spheroids, hydrogen peroxide oxidative stress, Calcein AM/Ethidium homodimer-1 stain; assay type: cell-based; settings: hydrogen peroxide 800 μM for 6 hrs; preventative; Dantrolene 100 μM, retinoic acid 10, 20 or 40 μM, Nifedipine 10 μM
Experimental: Media changes were on alternative days. […] Drug treatment was done overnight prior stress. […] Two repeats of all conditions were performed. Each repeat used 31 organoids per condition. […] DMSO controls were assessed in parallel on each plate.
Thus far, the Examples have focused on hypoxic and nutrient deprivation stressors. To test other stressors, this Example uses an oxidative stress/toxin stress model, where human intestinal fibroblast (HIF) primary cell spheroids were exposed to hydrogen peroxide. The standard viability Calcein AM/Ethidium homodimer-1 staining was used as a marker of cell death. Following 800 μM hydrogen peroxide exposure for 6 hrs, just over 25% of cells were dead in the control (i.e. relative to Triton X-100 that kills all cells).

[3] = known in the art; cited from earlier work

## C=C[C@H]1C[N@@]2CC[C@H]1C[C@@H]2[C@@H](O)c1ccnc2ccc(OC)cc12 [quinidine]
[1]; Hepg2s spheroids
  necrotic core formation / cell death necrosis relative to control: No significant necrosis prevention and/or treatment

## CCCCCCCC/C=C\CCCCCCCC(N)=O [oleamide]
[1]; Hepg2s spheroids
  necrotic core formation / cell death necrosis relative to control: No significant necrosis prevention and/or treatment

## CCCCCCCCO [octanol]
[1]; Hepg2s spheroids
  necrotic core formation / cell death necrosis relative to control: No significant necrosis prevention and/or treatment
[1]; compound in isolation, most trials
  level of cell death / toxicity in isolation relative to control: greater toxicity relative to control

## N.N.N.N.N.N.N.N.N.N.N.N.N.N.[Cl-].[Cl-].[Cl-].[Cl-].[Cl-].[Cl-].[O-2].[O-2].[Ru+3].[Ru+3].[Ru+4] [ruthenium red]
[1]; Hepg2s spheroids
  necrotic core formation / cell death necrosis relative to control: no significant difference from the controls; also recorded: no significant effect on level of cell death necrosis

## O=C1CN(/N=C/c2ccc(-c3ccc([N+](=O)[O-])cc3)o2)C(O)=N1 [Dantrolene]
[1]; Hepg2s spheroids
  necrotic core formation / cell death necrosis relative to control: no significant difference from the control; also recorded: no significant effect on necrosis inhibition; also recorded: no significant effect on cell necrosis relative to control
[1]; Hepg2s spheroids, listed as dantrolene
  necrotic core formation / cell death necrosis relative to control: no significant difference to control
[2]
  necrosis following oxidative stress relative to control: either no significant difference or a worse effect to control

## CCCCCCCC/C=C\CCCCCCCC(=O)O [oleic acid]
[1]; Hepg2s spheroids
  necrotic core formation / cell death necrosis relative to control: no significant difference from the control; also recorded: No significant necrosis prevention and/or treatment; also recorded: no significant effect on cell necrosis relative to control

## CCN(CC)CCOC(=O)c1ccc(N)cc1 [procaine]
[1]; Hepg2s spheroids
  necrotic core formation / cell death necrosis relative to control: no significant difference from the controls; also recorded: no significant effect on level of cell death necrosis

## CC1(C)[C@@H](O)CC[C@]2(C)[C@H]3C(=O)C=C4[C@@H]5C[C@@](C)(C(=O)O)CC[C@]5(C)CC[C@@]4(C)[C@]3(C)CC[C@@H]12 [glycyrrhetinic acid]
[1]; Hepg2s spheroids
  necrotic core formation / cell death necrosis relative to control: No significant necrosis prevention and/or treatment

## CCCCC/C=C\C/C=C\C/C=C\C/C=C\CCCC(=O)O [arachidonic acid]
[1]; Hepg2s spheroids
  necrotic core formation / cell death necrosis relative to control: No significant necrosis prevention and/or treatment

## CC1(C)[C@@H](OC(=O)CCC(=O)O)CC[C@]2(C)[C@H]3C(=O)C=C4[C@@H]5C[C@@](C)(C(=O)O)CC[C@]5(C)CC[C@@]4(C)[C@]3(C)CC[C@@H]12 [carbenoxolone]
[1]; Hepg2s spheroids
  necrotic core formation / cell death necrosis relative to control: No significant necrosis prevention and/or treatment

## O=C(O)c1cccnc1Nc1cccc(C(F)(F)F)c1 [niflumic acid]
[1]; Hepg2s spheroids
  necrotic core formation / cell death necrosis relative to control: No significant necrosis prevention and/or treatment

## CC(=O)OCOC(=O)CN(CC(=O)OCOC(C)=O)c1ccccc1OCCOc1ccccc1N(CC(=O)OCOC(C)=O)CC(=O)OCOC(C)=O [BAPTA-AM, 2-[N-[2-(acetyloxymethoxy)-2-oxoethyl]-2-[2-[2-[bis [2-(acetyloxymethoxy)-2-oxoethyl]amino]phenoxy]ethoxy]anilino]acetic acid acetyloxymethyl ester]
[1]; time points earlier than day 7
  toxicity at earlier time points: some milder toxicity in some trials
[1]; x8 dosage, 25 μM, day 7
  necrosis suppression: significant necrosis suppression
[3]
  cell culture dosages considered maximum dosages which result in minimum toxicity: 1 to 3 µM

## OC(c1cc(C(F)(F)F)nc2c(C(F)(F)F)cccc12)C1CCCCN1 (stereo not shown) [mefloquine]
[1]; Hepg2s spheroids
  necrotic core formation / cell death necrosis relative to control: No significant necrosis prevention and/or treatment

## FC(F)(F)C(Cl)Br (stereo not shown) [halothane]
[1]; Hepg2s spheroids
  necrotic core formation / cell death necrosis relative to control: No significant necrosis prevention and/or treatment

## COc1ccc([C@@H]2N[C@H](C(=O)O)Cc3c2[nH]c2ccccc32)cc1CN1CCN(c2ccccc2F)CC1 (relative stereo) [cis-Ned 19]
[1]; Hepg2s spheroids
  necrotic core formation / cell death necrosis relative to control: no significant difference from the control; also recorded: no significant effect on level of cell death necrosis

## O=C(O)c1ccccc1Nc1cccc(C(F)(F)F)c1 [flufenamic acid]
[1]; Hepg2s spheroids
  necrotic core formation / cell death necrosis relative to control: No significant necrosis prevention and/or treatment

## C=C[C@H]1C[N@@]2CC[C@H]1C[C@H]2[C@H](O)c1ccnc2ccc(OC)cc12 [quinine]
[1]; Hepg2s spheroids
  necrotic core formation / cell death necrosis relative to control: No significant necrosis prevention and/or treatment

## O=C(O)CN(CCN(CC(=O)O)CC(=O)O)CCN(CC(=O)O)CC(=O)O [DTPA, diethylenetriaminepentaacetic acid]
[1]
  toxicity at earlier time points: some mild, but not statistically significant, toxicity
[1]; Hepg2s spheroids, day 7
  dosage needed to suppress necrosis: 4000 µM
[3]
  cell culture dosages considered maximum dosages which result in minimum toxicity: around 50 μM

## CCCCC/C=C\C/C=C\CCCCCCCC(=O)O [linoleic acid]
[1]
  level of cell death / toxicity in isolation relative to control: greater toxicity relative to control
[1]; Hepg2s spheroids
  necrotic core formation / cell death necrosis relative to control: No significant necrosis prevention and/or treatment

## COc1ccc([C@H]2N[C@H](C(=O)O)Cc3c2[nH]c2ccccc32)cc1CN1CCN(c2ccccc2F)CC1 (relative stereo) [trans-Ned 19]
[1]; Hepg2s spheroids
  necrotic core formation / cell death necrosis relative to control: no significant difference from the control; also recorded: no significant effect on level of cell death necrosis

## CCCCCCCO [heptanol]
[1]; Hepg2s spheroids
  necrotic core formation / cell death necrosis relative to control: No significant necrosis prevention and/or treatment

## Cc1ccc(Cl)c(Nc2ccccc2C(=O)O)c1Cl [meclofenamic acid]
[1]; Hepg2s spheroids
  necrotic core formation / cell death necrosis relative to control: No significant necrosis prevention and/or treatment

## ryanodine
[1]; Hepg2s spheroids
  necrotic core formation / cell death necrosis relative to control: no significant difference from the control; also recorded: no significant difference to control
